Measurements taken from patent US20180271930A1, “METHOD FOR RAISING POULTRY” (priority 2015, published 2018).

How the values were obtained:
myostatin = assay: Examination 3: myostatin mRNA expression in skeletal muscle cells in differentiation medium; assay type: cell-based, broiler chicks (Ross 308); conditions: 100 μM GSSG in differentiation medium; cells recovered 0, 12, 24 h; FIG. 2B, n=6
Source text: FIGS. 2A to 2D illustrate graphs showing the expression levels of genes related to skeletal muscle cell differentiation upon the addition of GSSG during the skeletal muscle cell differentiation period in Examination 3 (n=6). […] A relative value of the expression level of each factor is expressed as an average±standard deviation of values obtained by dividing the expression levels of each factor by the expression level of RPS9. Each different symbol denotes a significant difference in the […] multiple comparison test (P<0.05). Oxidized glutathione (GSSG) was added to a differentiation-promoting culture medium system of skeletal muscle cells collected from newly hatched broiler chicks (Ross 308, Ross Breeders Ltd.) (under culture conditions simulating the state of skeletal muscle cells of neonatal chicks), phosphorylation of signal factors was analyzed by Western blot, and the differentiation inhibition mechanism was investigated. Expression levels of MyoD, myostatin, IGF-I, and Pax7 as genes involved in myogenesis were determined. Pax7 is a muscle satellite cell marker. […] The expression level of Pax7 was determined by the method described in Examination 1 except that the primer set used herein was a primer set listed in the table below. […] The cells were recovered 0, 12, and 24 hours later, and the expression levels of genes involved in myogenesis were determined. […]

[1] = Examination 7: body weight at 14 days old after GSSG feed until 3, 7 or 14 days old; assay type: in vivo, broiler chicks; conditions: n = 12
Experimental: In each group, 6 males and 6 females were tested. […] The chicks were raised until they became 14 days old, and then, their body weights were measured. The feed composition (ME3,100 kcal/kg, CP21) free of GSSG used in Examination 1 was used for the control group. In the control group the chicks were raised until they became 14 days old and their body weights were measured. In the test groups 1 to 3, a feed composition used as an initial-phase feed composition, for which the level of GSSG to be added was set to 0.05% by mass, is a composition prepared by adding GSSG at 0.05% by mass to a composition (ME3,100 kcal/kg, CP21) containing corn, soybean meal, corn gluten meal, fat and oil, calcium carbonate (powder), tricalcium phosphate, dietary salt, DL-methionine, L-lysine chloride, choline chloride, and vitamins/minerals in accordance with the NRC requirements. […] An ammonium salt was used as GSSG. The GSSG contained 95.6% by mass of oxidized glutathione, and the content of reduced glutathione mixed therein was 0.1% by mass or less.

[2] = Examination 4: body weight of chicks raised until 35 days old after feeding GSSG or GSH for 3 days; assay type: in vivo, broiler chicks; conditions: 0.01% by mass additive in feed for 3 days; n = 6, average ± standard deviation
Experimental: Newly hatched broiler chicks (Ross Breeders Ltd.) were tested. A control group (=additive-free group), a GSSG addition group (0.01% by mass), and a GSH addition group (0.01% by mass) each consisting of 5 males and 5 females were set and fed with a feed composition for 3 days. […] At this timing, 2 males and 2 females in each group were slaughtered to collect blood and skeletal muscles. The gene expression levels of the MyoD family (myogenin, myostatin, and Pax7) were observed. […] Statistics were analyzed using a mixed model in consideration of a gender difference and an interaction between males and females. An ammonium salt was used as oxidized glutathione (GSSG). The GSSG contained 95.6% by mass of oxidized glutathione, and the content of reduced glutathione mixed therein was 0.1% by mass or less. […] A feed composition, for which the amount of oxidized glutathione (GSSG) added was set to 0.01% by mass, is described in Examination 1. A feed composition, for which the amount of reduced glutathione (GSH) added was set to 0.01% by mass, was prepared by adding 0.01% by mass of GSH, instead of 0.01% by mass of GSSG, to the GSSG-containing feed composition described in detail in Examination 1.

In the case of oxidized glutathione [GSSG], the “mRNA expression level of myostatin vs control” value (myostatin) is reported as “significant decrease”, the 14-day-old weight ([1]; 0.05% by mass GSSG feed until 3 days old) is reported as 393 ± 17 g and the 14-day-old weight ([1]; 0.05% by mass GSSG feed until 7 days old) is reported as 391 ± 24 g. The 14-day-old weight ([1]; 0.05% by mass GSSG feed until 14 days old) was 351 ± 47 g, the “Weight, 14 days old” value [2] was 524.5 ± 37.0 g and the “Weight, 35 days old” value [2] was 2164 ± 178 g.
